Holding throughout (assay): DTP human tumour cell line panel, 48 h
Test [1] concerns DU-145 prostate.
In test [2] the test system is HCC-2998 colon.
Test [3] has as its system HL-60(TB) leukemia.
Test [4] concerns HOP-92 NSCLC.
Test [5] has as its system NCI-H23 lung.
In test [6] the test system is NCI-H522 lung.
Test [7] has as its system PC-3 prostate.
Test [8] deals with SK-MEL-5 melanoma.
Test [9] relates to T-47D breast.
Test [10] relates to UACC-62 melanoma.

Several values for one entry are separate records, joined by “and”; a condition that tells them apart may be missing. Identical values can stand only once.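 Protocol summary: plate cells (96-well), add compound at 5 concentrations, incubate 48 h, interpolate endpoints linearly. The concentration for 50% growth inhibition is given as GI50. TGI denotes the concentration required for complete inhibition of growth.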

What is called GI50 is the concentration that inhibits growth by half. By TGI is commonly meant the concentration giving total growth inhibition. For `CC(C)(C)OC(=O)N1CCc2c(sc3ncnc(N/N=C/c4cccc5ccccc45)c23)C1`, the GI50 in test [1] is 5.51 µM; in test [2] it was 12900 nM; in [3], 2810 nM; in test [4], 2780 nM; in test [5], 5250 nM; in test [6], 2260 nM. For the same molecule, the GI50 in [7] was 4.59 µM; in [8] it was 3360 nM; in test [9] it was 3040 nM; in [10] it was 2650 nM. Further, the TGI in [1] was above 100 µM; in [2] it was above 100 µM; in [3] it was 13.4 µM; in [4], 92.3 µM; in [5] it was above 100 µM; in test [6], 7.21 µM. Moreover, the total growth inhibition concentration (TGI) was above 100 µM in test [7], 11.1 µM in [8], 31.9 µM in test [9] and 10.2 µM in [10].
With `O=c1[nH]ncc(Br)c1Br`, the GI50 was 3.31 µM in test [1]; 1890 nM in test [2]; 2220 nM in test [3]; 1790 nM in test [4]; 1920 nM in [5]; 1710 nM in [6]. Further, the GI50 in test [7] is 5.45 µM; in test [8], 4380 nM; in test [9] it was 2120 nM; in [10] it was 1270 nM. The TGI in [1] was determined as 15.3 µM; in test [2], 3.38 µM; in test [3], 4.27 µM; in test [4], 3.31 µM; in test [5], 3.54 µM; in test [6], 3.25 µM. For the same molecule, the TGI is 20.8 µM in [7], 15.9 µM in test [8], 6.07 µM in test [9] and 2.58 µM in test [10].
With `CC1(C)OC2[C@@H](CNC(=O)NC(=O)NC(=O)CI)O[C@@H](n3cnc4c(NC(=O)Nc5ccccc5)ncnc43)[C@H]2O1` (stereo not given in full), the GI50 in test [1] was 14.5 µM; in [2] it was 9290 nM; in test [3], 1610 nM; in test [4], 1400 nM; in [5], 7460 nM; in [6], 742 nM. For the same molecule, the GI50 was 8 µM in [7], 8740 nM in test [8], 9640 nM in [9] and 8440 nM in test [10]. The total growth inhibition concentration (TGI) in test [1] is above 50 µM; in [2], 19.7 µM; in [3], 4.13 µM; in [4], 4.23 µM; in test [5], 16.7 µM; in [6] it was 1.5 µM. The total growth inhibition concentration (TGI) worked out at 16.6 µM in [7], 16.2 µM in test [8], 21.5 µM in test [9] and 17.1 µM in test [10].
Take `COc1cc(C2NC(=O)c3ccccc3N2)ccc1OCCCCCOc1c(OC)cc(C2=NOC(c3cc(OC)c(OC)c(OC)c3)C2)cc1OC` (stereo not given): the GI50 in test [1] is 22.5 µM; in test [2], 1140 nM; in test [3], 11700 nM; in [4], 60200 nM; in [5], 484 nM; in test [6] it was 17100 nM. For the same molecule, the GI50 in [7] was 4.62 µM; in test [8] it was 142 nM; in test [9], 239 nM; in [10], 506 nM. The concentration for total growth inhibition (TGI) was above 82.7 µM in test [1]; 37.8 µM in [2]; above 53.9 µM in test [3]; above 100 µM in test [4]; above 80 µM in [5]; above 56.2 µM in test [6]. Moreover, the concentration for total growth inhibition (TGI) is above 66.5 µM in test [7], 0.546 µM in [8], above 100 µM in test [9] and above 100 µM in test [10].
With `CC[C@@H]1C(=O)N(C)c2cnc(Nc3ccc(C(=O)NC4CCN(C)CC4)cc3OC)nc2N1C1CCCC1`, the concentration for 50% growth inhibition (GI50) in [1] was 0.00363 µM; in test [2] it was 4.26 nM and < 10 nM; in test [3], 2.31 nM and < 10 nM; in [4], 12.5 nM and 14.9 nM; in test [5], 4.43 nM and < 10 nM; in test [6], 2.94 nM and < 10 nM. Also, the 50% growth inhibitory concentration (GI50) in test [7] was 0.00454 µM and < 0.01 µM; in test [8], 8.61 nM and 12.3 nM; in [9], 71.8 nM and 157 nM; in test [10], 10.1 nM and 25.2 nM. The TGI was above 10 µM in test [1]; 1.42 µM and 0.506 µM in test [2]; 0.00631 µM and 0.0445 µM in test [3]; 0.563 µM and 2.36 µM in test [4]; > 5.03 µM and 6.4 µM in test [5]; below 0.0561 µM in test [6]. The total growth inhibition concentration (TGI) in test [7] was > 10 µM and 19.1 µM; in test [8], 0.205 µM and 0.274 µM; in test [9], > 10 µM and 6.27 µM; in [10], > 4.41 µM and 4.21 µM.

For the origin of these results see PubChem BioAssay (NCI).
